According to ChEMBL document CHEMBL1201862, “PubChem BioAssay data set” (2004):
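Method: 48-hour compound exposure of cells in 96-well plates, five concentrations, linear interpolation of endpoints. Here, GI50 denotes the concentration required for 50% inhibition of growth.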 Activity calls are given as the source filed them. Rule as the data show it: active = GI50 up to about 1.1 µM and inactive = higher. Square brackets hold non-standard residues; d marks the D form. Peptide text beside a SMILES is read from it. * marks the point of attachment. ξ: configuration not given here. NMeY = CN[C@@H](Cc1ccc(O)cc1)C(=O)O; Cbz = O=C(OCc1ccccc1)*; ξA = CC(N)C(=O)O

What was measured:
Assay in all cases: NCI anticancer screen, dose series, 48 h
OVCAR-5 = tested on: OVCAR-5
SNB-78 = tested on: SNB-78
A498 = tested on: A498
786-0 = tested on: 786-0
OVCAR-8 = tested on: OVCAR-8
SK-MEL-2 = tested on: SK-MEL-2
LOX IMVI = tested on: LOX IMVI
UACC-257 = tested on: UACC-257
UACC-62 = tested on: UACC-62
COLO 205 = tested on: COLO 205
HOP-92 = tested on: HOP-92
SN12C = tested on: SN12C
NCI-H522 = tested on: NCI-H522
IGROV-1 = tested on: IGROV-1
OVCAR-4 = tested on: OVCAR-4
OVCAR-3 = tested on: OVCAR-3
K562 = tested on: K562
KM12 = tested on: KM12
HOP-62 = tested on: HOP-62
A549 = tested on: A549
DMS-273 = tested on: DMS-273
ACHN = tested on: ACHN
SK-OV-3 = tested on: SK-OV-3
Malme-3M = tested on: Malme-3M
SNB-75 = tested on: SNB-75
RXF 393 = tested on: RXF 393
HCT-15 = tested on: HCT-15
DLD-1 = tested on: DLD-1
HL-60 = tested on: HL-60
LXFL 529 = tested on: LXFL 529
MOLT-4 = tested on: MOLT-4
NCI-H460 = tested on: NCI-H460
HCT-116 = tested on: HCT-116
CAKI-1 = tested on: CAKI-1
TK-10 = tested on: TK-10
SF-539 = tested on: SF-539
SK-MEL-5 = tested on: SK-MEL-5
SF-268 = tested on: SF-268
HCC 2998 = tested on: HCC 2998
M14 = tested on: M14
UO-31 = tested on: UO-31
U-251 = tested on: U-251
SK-MEL-28 = tested on: SK-MEL-28
EKVX = tested on: EKVX
SNB-19 = tested on: SNB-19
M19-MEL = tested on: M19-MEL
NCI-H23 = tested on: NCI-H23
SF-295 = tested on: SF-295
RPMI-8226 = tested on: RPMI-8226
SW-620 = tested on: SW-620
DMS-114 = tested on: DMS-114
CCRF-CEM = tested on: CCRF-CEM
NCI-H226 = tested on: NCI-H226
HT-29 = tested on: HT-29
Hs-578T = tested on: Hs-578T
NCI/ADR-RES = tested on: NCI/ADR-RES
MDA-MB-435 = tested on: MDA-MB-435
PC-3 = tested on: PC-3
SR = tested on: SR
MCF7 = tested on: MCF7
MDA-MB-231 = tested on: MDA-MB-231
T47D = tested on: T47D
BT-549 = tested on: BT-549
MDA-N = tested on: MDA-N
DU-145 = tested on: DU-145

CCOc1ccccc1C=C1c2ccccc2C(=O)c2ccccc21
GI50 (OVCAR-5): 12.8 µM (inactive)
GI50 (SNB-78): 5.75 µM (inactive)
GI50 (A498): 6.75 µM (inactive)
GI50 (786-0): 3.38 µM (inactive)
GI50 (OVCAR-8): 5.27 µM (inactive)
GI50 (SK-MEL-2): 2.94 µM (inactive)
GI50 (LOX IMVI): 8.69 µM (inactive)
GI50 (UACC-257): 4.21 µM (inactive)
GI50 (UACC-62): 3.34 µM (inactive)
GI50 (COLO 205): 3.78 µM (inactive)
GI50 (HOP-92): 5.48 µM (inactive)
GI50 (SN12C): 6.56 µM (inactive)
GI50 (NCI-H522): 2.36 µM (inactive)
GI50 (IGROV-1): 3.58 µM (inactive)
GI50 (OVCAR-4): 22.1 µM (inactive)
GI50 (OVCAR-3): 2.5 µM (inactive)
GI50 (K562): 3.32 µM (inactive)
GI50 (KM12): 0.673 µM (active)
GI50 (HOP-62): 3.76 µM (inactive)
GI50 (A549): 5.16 µM (inactive)
GI50 (DMS-273): 0.535 µM (active)
GI50 (ACHN): 8.63 µM (inactive)
GI50 (SK-OV-3): 3.03 µM (inactive)
GI50 (Malme-3M): 8.15 µM (inactive)
GI50 (SNB-75): 2.17 µM (inactive)
GI50 (RXF 393): 2.04 µM (inactive)
GI50 (HCT-15): 0.804 µM
GI50 (DLD-1): 2.55 µM (inactive)
GI50 (HL-60): 2.99 µM (inactive)
GI50 (LXFL 529): 6.98 µM (inactive)
GI50 (MOLT-4): 4.3 µM (inactive)
GI50 (NCI-H460): 4.15 µM (inactive)
GI50 (HCT-116): 4.63 µM (inactive)
GI50 (CAKI-1): 2.11 µM (inactive)
GI50 (TK-10): 4.56 µM (inactive)
GI50 (SF-539): 2.16 µM (inactive)
GI50 (SK-MEL-5): 2.75 µM (inactive)
GI50 (SF-268): 5.07 µM (inactive)
GI50 (HCC 2998): 3.63 µM (inactive)
GI50 (M14): 5.83 µM (inactive)
GI50 (UO-31): 2.59 µM (inactive)
GI50 (U-251): 4.37 µM (inactive)
GI50 (SK-MEL-28): 12 µM (inactive)
GI50 (EKVX): 3.23 µM (inactive)
GI50 (SNB-19): 3.63 µM (inactive)
GI50 (M19-MEL): 5.93 µM (inactive)
GI50 (NCI-H23): 4.06 µM (inactive)
GI50 (SF-295): 3.82 µM (inactive)
GI50 (RPMI-8226): 3.81 µM (inactive)
GI50 (SW-620): 3.72 µM (inactive)
GI50 (DMS-114): 3.42 µM (inactive)
GI50 (CCRF-CEM): 4.32 µM (inactive)

O=C1NC(=S)S/C1=C/c1ccco1
GI50 (OVCAR-5): > 100 µM (inactive)
GI50 (A498): 11.1 µM (inactive)
GI50 (OVCAR-8): > 100 µM (inactive)
GI50 (LOX IMVI): > 100 µM (inactive)
GI50 (UACC-257): 46.3 µM (inactive)
GI50 (UACC-62): > 100 µM (inactive)
GI50 (COLO 205): > 100 µM (inactive)
GI50 (HOP-92): 49.4 µM (inactive)
GI50 (SN12C): > 100 µM (inactive)
GI50 (IGROV-1): > 100 µM (inactive)
GI50 (NCI-H226): > 100 µM (inactive)
GI50 (OVCAR-4): > 100 µM (inactive)
GI50 (OVCAR-3): 50.1 µM (inactive)
GI50 (HT-29): > 100 µM (inactive)
GI50 (A549): > 100 µM (inactive)
GI50 (DMS-273): > 100 µM (inactive)
GI50 (ACHN): > 100 µM (inactive)
GI50 (SK-OV-3): > 100 µM (inactive)
GI50 (SNB-75): > 100 µM (inactive)
GI50 (RXF 393): > 100 µM (inactive)
GI50 (HCT-15): > 100 µM
GI50 (DLD-1): > 100 µM (inactive)
GI50 (LXFL 529): > 100 µM (inactive)
GI50 (NCI-H460): > 100 µM (inactive)
GI50 (HCT-116): > 100 µM (inactive)
GI50 (CAKI-1): > 100 µM (inactive)
GI50 (TK-10): > 100 µM (inactive)
GI50 (SF-539): > 100 µM (inactive)
GI50 (SK-MEL-5): > 100 µM (inactive)
GI50 (SF-268): > 100 µM (inactive)
GI50 (HCC 2998): > 100 µM (inactive)
GI50 (M14): > 100 µM (inactive)
GI50 (UO-31): > 100 µM (inactive)
GI50 (SK-MEL-28): > 100 µM (inactive)
GI50 (EKVX): > 100 µM (inactive)
GI50 (SNB-19): > 100 µM (inactive)
GI50 (NCI-H23): > 100 µM (inactive)
GI50 (SF-295): > 100 µM (inactive)
GI50 (SW-620): > 100 µM (inactive)
GI50 (DMS-114): > 100 µM (inactive)

COc1ccc(C[C@@H](C(=O)N[C@@H](C)C(N)=O)N(C)C(=O)[C@@H]2CCCN2C(=O)[C@H](CC(C)C)NC(=O)C(C)NC(=O)OCc2ccccc2)cc1 (stereo partly specified) (Cbz-[ξA]LP[NMeY](Me)A-NH2)
GI50 (Hs-578T): 4.94 µM (inactive)
GI50 (NCI/ADR-RES): > 100 µM (inactive)
GI50 (OVCAR-5): > 100 µM (inactive)
GI50 (A498): > 100 µM (inactive)
GI50 (786-0): > 100 µM (inactive)
GI50 (OVCAR-8): > 100 µM (inactive)
GI50 (SK-MEL-2): > 100 µM (inactive)
GI50 (MDA-MB-435): > 100 µM (inactive)
GI50 (LOX IMVI): > 100 µM (inactive)
GI50 (UACC-257): > 10 µM (inactive)
GI50 (UACC-62): 73.1 µM (inactive)
GI50 (COLO 205): > 100 µM (inactive)
GI50 (HOP-92): > 100 µM (inactive)
GI50 (SN12C): > 100 µM (inactive)
GI50 (NCI-H522): > 100 µM (inactive)
GI50 (IGROV-1): 51.8 µM (inactive)
GI50 (NCI-H226): > 100 µM (inactive)
GI50 (OVCAR-4): > 100 µM (inactive)
GI50 (OVCAR-3): > 100 µM (inactive)
GI50 (K562): 84.3 µM (inactive)
GI50 (HT-29): > 100 µM (inactive)
GI50 (KM12): > 100 µM (inactive)
GI50 (HOP-62): > 100 µM (inactive)
GI50 (A549): > 100 µM (inactive)
GI50 (ACHN): > 100 µM (inactive)
GI50 (SK-OV-3): > 100 µM (inactive)
GI50 (Malme-3M): > 100 µM (inactive)
GI50 (SNB-75): 66.1 µM (inactive)
GI50 (RXF 393): > 100 µM (inactive)
GI50 (HCT-15): > 100 µM
GI50 (PC-3): 61.7 µM (inactive)
GI50 (HL-60): > 100 µM (inactive)
GI50 (SR): > 100 µM (inactive)
GI50 (MOLT-4): 35.5 µM (inactive)
GI50 (NCI-H460): > 100 µM (inactive)
GI50 (HCT-116): > 100 µM (inactive)
GI50 (CAKI-1): > 100 µM (inactive)
GI50 (MCF7): > 100 µM (inactive)
GI50 (TK-10): > 100 µM (inactive)
GI50 (SF-539): > 100 µM (inactive)
GI50 (SK-MEL-5): 76.2 µM (inactive)
GI50 (SF-268): > 100 µM (inactive)
GI50 (MDA-MB-231): > 100 µM (inactive)
GI50 (HCC 2998): > 100 µM (inactive)
GI50 (T47D): > 100 µM (inactive)
GI50 (BT-549): > 100 µM (inactive)
GI50 (M14): > 100 µM (inactive)
GI50 (UO-31): > 100 µM (inactive)
GI50 (U-251): > 100 µM (inactive)
GI50 (SK-MEL-28): > 100 µM (inactive)
GI50 (EKVX): > 100 µM (inactive)
GI50 (MDA-N): > 100 µM (inactive)
GI50 (SNB-19): > 100 µM (inactive)
GI50 (DU-145): > 100 µM (inactive)
GI50 (NCI-H23): > 100 µM (inactive)
GI50 (SF-295): > 100 µM (inactive)
GI50 (RPMI-8226): > 100 µM (inactive)
GI50 (SW-620): > 100 µM (inactive)
GI50 (CCRF-CEM): > 100 µM (inactive)
